Results on 24 compounds are retold here after patent publication US8846933B2, “N-link hydroxamic acid derivatives useful as antibacterial agents” (Pfizer Inc., priority 2009, dated 2014).

Common to all, as to assay type: cell-based
Test [1] concerns Pseudomonas aeruginosa UI-18: Wild-type (PA-7). In words: MIC determination (CLSI), strain PA-7. Particulars: Pseudomonas aeruginosa UI-18, wild-type; unit assumed. In a few lines: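 MIC determined by broth dilution per CLSI M7-A7 guidelines with M100-S18 interpretive standards. Test organism: wild-type Pseudomonas aeruginosa UI-18, designated PA-7.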
The test system of test [2] is Escherichia coli EC-1: VOGEL, mouse virulent. In words: MIC determination (CLSI), strain EC-1. Particulars: Escherichia coli EC-1, VOGEL, mouse virulent; unit assumed. In a few lines:
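The mouse-virulent VOGEL isolate of E. coli, EC-1, served as test organism. Minimum inhibitory concentration was measured by CLSI dilution methodology (M7-A7; M100-S18 standards).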

Test [3] deals with Acinetobacter baumanii/haemolyticus: Multidrug-resistant clinical isolate (AB-3167). In words: MIC determination (CLSI), strain AB-3167. Particulars: unit assumed. In a few lines: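 MIC measured by broth dilution per CLSI guidelines (M7-A7, M100-S18) against multidrug-resistant clinical isolate AB-3167 of Acinetobacter baumanii/haemolyticus.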

Bounds are passed on as bounds.

As to `C[C@@](CCn1ccc(-c2cccc(F)c2)cc1=O)(C(=O)NO)S(C)(=O)=O` [Example 42, (2R)-4-[4-(3-fluorophenyl)-2-oxopyridin-1(2H)-yl]-N-hydroxy-2-methyl-2-(methylsulfonyl)butanamide], in test [1], the PA-7 (MIC) came to 1 µg/mL. The same compound showed an EC-1 (MIC) in test [2] of 2 µg/mL. Also, in test [3], the AB-3167 (MIC) was more than 64 µg/mL.

Regarding `Cc1cnc(-c2ccc(-c3ccn(CC[C@](C)(C(=O)NO)S(C)(=O)=O)c(=O)c3)cc2)o1` [Example 38, (2R)-N-hydroxy-2-methyl-4-{4-[4-(5-methyl-1,3-oxazol-2-yl)phenyl]-2-oxopyridin-1(2H)-yl}-2-(methylsulfonyl)butanamide], in test [1], the PA-7 (MIC) stood at 0.5 µg/mL. In addition, the EC-1 (MIC) in test [2] was 0.06 µg/mL. In addition, the AB-3167 (MIC) in test [3] is more than 64 µg/mL.

The compound `CC1(O)CCC(Oc2ccc(-c3ccn(CC[C@](C)(C(=O)NO)S(C)(=O)=O)c(=O)c3)cc2)CC1` (stereo partly drawn) [Example 10-G, (2R)-N-hydroxy-4-[4-{4-[(4-hydroxy-4-methylcyclohexyl)oxy]phenyl}-2-oxopyridin-1(2H)-yl]-2-methyl-2-(methylsulfonyl)butanamide] yielded a PA-7 (MIC) in test [1] of 2 µg/mL. The compound also displayed an EC-1 (MIC) in test [2] of 0.5 µg/mL. Besides, the AB-3167 (MIC) in test [3] was determined as 64 µg/mL.

On to `C[C@@](CCn1ccc(-c2ccc(OC[C@H]3CC[C@H](O)CC3)cc2)cc1=O)(C(=O)NO)S(C)(=O)=O` [Example 9, (2R)-N-hydroxy-4-[4-{4-[(trans-4-hydroxycyclohexyl)methoxy]phenyl}-2-oxopyridin-1(2H)-yl]-2-methyl-2-(methylsulfonyl)butanamide], for which, in test [1], the PA-7 (MIC) worked out at 1 µg/mL. Further, in test [2], the EC-1 (MIC) came out at 0.25 µg/mL. The AB-3167 (MIC) in test [3] was determined as 32 µg/mL.

Consider `Cn1c(-c2ccn(CCC(C)(C(=O)NO)S(C)(=O)=O)c(=O)c2)cc2ccccc21` (stereo not drawn) [Example 68-R, N-hydroxy-2-methyl-4-[4-(1-methyl-1H-indol-2-yl)-2-oxopyridin-1(2H)-yl]-2-(methylsulfonyl)butanamide], for which the PA-7 (MIC) in test [1] was 8 µg/mL. The EC-1 (MIC) in test [2] came to 4 µg/mL. Besides, in test [3], the AB-3167 (MIC) is more than 64 µg/mL.

As to `C[C@@](CCn1ccc(-c2ccc(C3CCOCC3)cc2)cc1=O)(C(=O)NO)S(C)(=O)=O` [Example 47, (2R)-N-hydroxy-2-methyl-2-(methylsulfonyl)-4-{2-oxo-4-[4-(tetrahydro-2H-pyran-4-yl)phenyl]pyridin-1(2H)-yl}butanamide], the PA-7 (MIC) in test [1] is 2 µg/mL. In test [2], this compound showed an EC-1 (MIC) of 0.5 µg/mL. Also, the AB-3167 (MIC) in test [3] is more than 64 µg/mL.

In test [1], `C[C@@](CCn1ccc(-c2ccc(C(F)(F)F)cc2)cc1=O)(C(=O)NO)S(C)(=O)=O` [Example 68-I, (2R)-N-hydroxy-2-methyl-2-(methylsulfonyl)-4-{2-oxo-4-[4-(trifluoromethyl)phenyl]pyridin-1(2H)-yl}butanamide] displayed a PA-7 (MIC) of 1 µg/mL. For the same compound, the EC-1 (MIC) in test [2] worked out at 1 µg/mL. In test [3], this compound showed an AB-3167 (MIC) of more than 64 µg/mL.

On to `CC1(O)CC(COc2ccc(-c3ccn(CC[C@](C)(C(=O)NO)S(C)(=O)=O)c(=O)c3)cc2)C1` (stereo partly drawn) [Example 10-B, (2R)-N-hydroxy-4-[4-{4-[(3-hydroxy-3-methylcyclobutyl)methoxy]phenyl}-2-oxopyridin-1(2H)-yl]-2-methyl-2-(methylsulfonyl)butanamide], for which the PA-7 (MIC) in test [1] was determined as 1 µg/mL. This compound had an EC-1 (MIC) in test [2] of 0.5 µg/mL. Besides, the AB-3167 (MIC) in test [3] was more than 64 µg/mL.

The compound `C[C@@](CCn1ccc(C2=CCCCC2)cc1=O)(C(=O)NO)S(C)(=O)=O` [Example 68-K, (2R)-4-(4-cyclohex-1-en-1-yl-2-oxopyridin-1(2H)-yl)-N-hydroxy-2-methyl-2-(methylsulfonyl)butanamide] displayed a PA-7 (MIC) in test [1] of 1 µg/mL. Also, the EC-1 (MIC) in test [2] was found to be 4 µg/mL. The compound also had an AB-3167 (MIC) in test [3] of more than 64 µg/mL.

As for `CC(CCn1ccc(-c2ccc(OC3CC(CO)C3)cc2)cc1=O)(C(=O)NO)S(C)(=O)=O` (stereo not drawn) [Example 10-F, N-hydroxy-4-[4-(4-{[3-(hydroxymethyl)cyclobutyl]oxy}phenyl)-2-oxopyridin-1(2H)-yl]-2-methyl-2-(methylsulfonyl)butanamide], the PA-7 (MIC) in test [1] came to 2 µg/mL. Moreover, the EC-1 (MIC) in test [2] is 0.5 µg/mL. For the same compound, the AB-3167 (MIC) in test [3] turned out to be 64 µg/mL.

Consider `C[C@@](CCn1ccc(-c2ccc(OC(F)(F)[C@H]3CC[C@H](O)CC3)cc2)cc1=O)(C(=O)NO)S(C)(=O)=O` [Example 60, (2R)-4-[4-{4-[difluoro(trans-4-hydroxycyclohexyl)methoxy]phenyl}-2-oxopyridin-1(2H)-yl]-N-hydroxy-2-methyl-2-(methylsulfonyl)butanamide], for which the PA-7 (MIC) in test [1] worked out at 1 µg/mL. Moreover, the EC-1 (MIC) in test [2] turned out to be 0.125 µg/mL. In test [3], the AB-3167 (MIC) is 32 µg/mL.

The compound `C[C@@](CCn1ccc(-c2ccc(OCC3CC(CO)C3)cc2)cc1=O)(C(=O)NO)S(C)(=O)=O` (stereo partly drawn) [Example 10-D, (2R)-N-hydroxy-4-[4-(4-{[3-(hydroxymethyl)cyclobutyl]methoxy}phenyl)-2-oxopyridin-1(2H)-yl]-2-methyl-2-(methylsulfonyl)butanamide] registered a PA-7 (MIC) in test [1] of 1 µg/mL. The same compound showed an EC-1 (MIC) in test [2] of 0.25 µg/mL. In addition, in test [3], the AB-3167 (MIC) is more than 64 µg/mL.

In test [1], `C[C@@](CCn1ccc(-c2ccc(Cl)cc2F)cc1=O)(C(=O)NO)S(C)(=O)=O` [Example 20, (2R)-4-[4-(4-chloro-2-fluorophenyl)-2-oxopyridin-1(2H)-yl]-N-hydroxy-2-methyl-2-(methylsulfonyl)butanamide] returned a PA-7 (MIC) of 0.25 µg/mL. In test [2], this compound came in with an EC-1 (MIC) of 0.25 µg/mL. Moreover, the AB-3167 (MIC) in test [3] was more than 64 µg/mL.

`C[C@@](CCn1ccc(-c2ccc(CC3CC(O)C3)cc2)cc1=O)(C(=O)NO)S(C)(=O)=O` (stereo partly drawn) [Example 68-M, (2R)-N-hydroxy-4-[4-{4-[(3-hydroxycyclobutyl)methyl]phenyl}-2-oxopyridin-1(2H)-yl]-2-methyl-2-(methylsulfonyl)butanamide] displayed a PA-7 (MIC) in test [1] of 2 µg/mL. Besides, the EC-1 (MIC) in test [2] is 0.5 µg/mL. In test [3], this compound registered an AB-3167 (MIC) of more than 64 µg/mL.

In the case of `CC1(O)CCC(Oc2ccc(-c3ccn(CC[C@](C)(C(=O)NO)S(C)(=O)=O)c(=O)c3)cc2)CC1` (stereo partly drawn) [Example 10-A, (2R)-N-hydroxy-4-[4-{4-[(4-hydroxy-4-methylcyclohexyl)oxy]phenyl}-2-oxopyridin-1(2H)-yl]-2-methyl-2-(methylsulfonyl)butanamide], the PA-7 (MIC) in test [1] amounted to 1 µg/mL. Further, the EC-1 (MIC) in test [2] worked out at 0.25 µg/mL. The AB-3167 (MIC) in test [3] was more than 64 µg/mL.

In test [1], `Cc1cc2cc(-c3ccn(CC[C@](C)(C(=O)NO)S(C)(=O)=O)c(=O)c3)ccc2[nH]1` [Example 19, (2R)-N-hydroxy-2-methyl-4-[4-(2-methyl-1H-indol-5-yl)-2-oxopyridin-1(2H)-yl]-2-(methylsulfonyl)butanamide] had a PA-7 (MIC) of 2 µg/mL. In test [2], this compound showed an EC-1 (MIC) of 1 µg/mL. For the same compound, the AB-3167 (MIC) in test [3] was more than 64 µg/mL.

Regarding `C[C@@](CCn1ccc(/C=C/c2ccccc2)cc1=O)(C(=O)NO)S(C)(=O)=O` [Example 2, (2R)-N-hydroxy-2-methyl-2-(methylsulfonyl)-4-{2-oxo-4-[(E)-2-phenylvinyl]pyridin-1(2H)-yl}butanamide], the PA-7 (MIC) in test [1] stood at 2 µg/mL. Further, the EC-1 (MIC) in test [2] was determined as 0.5 µg/mL. Besides, in test [3], the AB-3167 (MIC) is 64 µg/mL.

For `C[C@@](CCn1ccc(C2=CCN(c3ncccn3)CC2)cc1=O)(C(=O)NO)S(C)(=O)=O` [Example 67, (2R)-N-Hydroxy-2-methyl-2-(methylsulfonyl)-4-(2-oxo-1′-pyrimidin-2-yl-1′,2′,3′,6′-tetrahydro-4,4′-bipyridin-1(2H)-yl)butanamide], the PA-7 (MIC) in test [1] was 8 µg/mL. In test [2], this compound had an EC-1 (MIC) of 8 µg/mL. In test [3], this compound showed an AB-3167 (MIC) of more than 64 µg/mL.

On to `COc1ccc(-c2ccn(CC[C@](C)(C(=O)NO)S(C)(=O)=O)c(=O)c2)c(F)c1` [Example 21, (2R)-4-[4-(2-fluoro-4-methoxyphenyl)-2-oxopyridin-1(2H)-yl]-N-hydroxy-2-methyl-2-(methylsulfonyl)butanamide], for which, in test [1], the PA-7 (MIC) amounted to 0.25 µg/mL. The compound also returned an EC-1 (MIC) in test [2] of 0.125 µg/mL. This compound also had an AB-3167 (MIC) in test [3] of 32 µg/mL.

Consider `C[C@@](CCn1ccc(-c2ccccc2)cc1=O)(C(=O)NO)S(C)(=O)=O` [Example 11, (2R)-N-Hydroxy-2-methyl-2-(methylsulfonyl)-4-(2-oxo-4-phenylpyridin-1(2H)-yl)butanamide], for which, in test [1], the PA-7 (MIC) was 1 µg/mL. The compound also had an EC-1 (MIC) in test [2] of 8 µg/mL. This compound also registered an AB-3167 (MIC) in test [3] of 64 µg/mL.

Regarding `COc1ccc(-c2ccn(CC[C@](C)(C(=O)NO)S(C)(=O)=O)c(=O)c2)cc1` [Example 17, (2R)-N-hydroxy-4-[4-(4-methoxyphenyl)-2-oxopyridin-1(2H)-yl]-2-methyl-2-(methylsulfonyl)butanamide], the PA-7 (MIC) in test [1] came out at 0.5 µg/mL. Further, the EC-1 (MIC) in test [2] turned out to be 0.5 µg/mL. This compound gave an AB-3167 (MIC) in test [3] of more than 64 µg/mL.

`CC(CCn1ccc(-c2ccc3cccnc3c2)cc1=O)(C(=O)NO)S(C)(=O)=O` (stereo not drawn) [Example 36, N-hydroxy-2-methyl-2-(methylsulfonyl)-4-(2-oxo-4-quinolin-7-ylpyridin-1(2H)-yl)butanamide]: in test [1], the PA-7 (MIC) came to 8 µg/mL. The compound also came in with an EC-1 (MIC) in test [2] of 4 µg/mL. Also, in test [3], the AB-3167 (MIC) is more than 64 µg/mL.

The compound `CC(CCn1ccc(OCc2ccccc2)cc1=O)(C(=O)NO)S(C)(=O)=O` (stereo not drawn) [Example 51, 4-[4-(Benzyloxy)-2-oxopyridin-1(2H)-yl]-N-hydroxy-2-methyl-2-(methylsulfonyl)butanamide] returned a PA-7 (MIC) in test [1] of 16 µg/mL. For the same compound, the EC-1 (MIC) in test [2] was found to be 16 µg/mL. In addition, the AB-3167 (MIC) in test [3] is more than 64 µg/mL.

In the case of `CC(CCn1ccc(C2CCCCC2)cc1=O)(C(=O)NO)S(C)(=O)=O` (stereo not drawn) [Example 53, 4-(4-Cyclohexyl-2-oxopyridin-1(2H)-yl)-N-hydroxy-2-methyl-2-(methylsulfonyl)butanamide], in test [1], the PA-7 (MIC) is 8 µg/mL. Moreover, in test [2], the EC-1 (MIC) turned out to be 16 µg/mL. Further, the AB-3167 (MIC) in test [3] is more than 64 µg/mL.
